Results: PMC8517087, “Analysis of M4 Transmembrane Segments in NMDA Receptor Function: A Negative Allosteric Modulatory Site at the GluN1 M4 is Determining the Efficiency of Neurosteroid Modulation” (Frontiers in Pharmacology, 2021)
Structures can show the parent of a compound that is named as a salt.

Columns and labels:
Assay in all cases: two-electrode voltage clamp, Xenopus oocytes, -70 mV
Type in all cases: cell-based
GluN1^ΔM4+M4^N1/GluN2D = target: T1, GluN1^ΔM4+M4^N1/GluN2D (Rattus norvegicus; Mus musculus, UniProt P35439+Q03391); details: saturating glutamate and glycine, PS pre-applied 45 s
T1 construct: gene Grin1; M4-truncated GluN1 plus separately expressed M4 fragment carrying GluN1 signal peptide, with full-length GluN2D; Xenopus oocytes

GluN1/GluN2A^ΔM4+M4^N2A = target: T2, GluN1/GluN2A^ΔM4+M4^N2A (Rattus norvegicus; Mus musculus, UniProt P35436+P35439); details: saturating glutamate and glycine, PS pre-applied 45 s
T2 construct: gene Grin1; full-length GluN1 with M4-truncated GluN2A plus separately expressed GluN2A M4 fragment; Xenopus oocytes

GluN1/GluN2A = target: T3, GluN1/GluN2A (Rattus norvegicus; Mus musculus, UniProt P35436+P35439)
T3 construct: gene Grin1; full-length wild-type subunits in pNKS2, cRNA in Xenopus laevis oocytes; heterotetramer (rat GluN1 with mouse GluN2A)

GluN1^ΔM4+M4^N1/GluN2A = target: T4, GluN1^ΔM4+M4^N1/GluN2A (Rattus norvegicus; Mus musculus, UniProt P35436+P35439)
T4 construct: gene Grin1; M4-truncated GluN1 plus separately expressed M4 fragment carrying GluN1 signal peptide, with full-length GluN2A; Xenopus oocytes

T2 sequence (P35436 23-803, stated change not applied, other chains not shown): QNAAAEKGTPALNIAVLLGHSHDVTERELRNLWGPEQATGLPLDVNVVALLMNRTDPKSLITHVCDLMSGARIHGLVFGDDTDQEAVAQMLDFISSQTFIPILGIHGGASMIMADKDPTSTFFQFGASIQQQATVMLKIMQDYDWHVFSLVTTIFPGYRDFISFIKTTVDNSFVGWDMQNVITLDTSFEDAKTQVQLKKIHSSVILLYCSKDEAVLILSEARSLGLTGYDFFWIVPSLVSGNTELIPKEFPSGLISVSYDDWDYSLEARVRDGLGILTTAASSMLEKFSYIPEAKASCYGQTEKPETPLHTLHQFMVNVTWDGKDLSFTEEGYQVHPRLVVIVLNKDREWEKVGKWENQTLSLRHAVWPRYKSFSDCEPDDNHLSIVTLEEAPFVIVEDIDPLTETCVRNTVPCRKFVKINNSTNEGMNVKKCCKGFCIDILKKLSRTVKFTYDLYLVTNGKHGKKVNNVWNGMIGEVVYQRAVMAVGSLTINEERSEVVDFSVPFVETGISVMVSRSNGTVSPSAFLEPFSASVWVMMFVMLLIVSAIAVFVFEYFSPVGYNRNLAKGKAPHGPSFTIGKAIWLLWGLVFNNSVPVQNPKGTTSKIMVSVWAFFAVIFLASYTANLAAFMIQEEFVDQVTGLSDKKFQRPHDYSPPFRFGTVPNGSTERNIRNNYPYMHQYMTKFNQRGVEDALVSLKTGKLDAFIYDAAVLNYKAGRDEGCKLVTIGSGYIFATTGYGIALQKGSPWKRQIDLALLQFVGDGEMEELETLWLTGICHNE
T2 sequence (P35436 804-1464, stated change not applied, other chains not shown): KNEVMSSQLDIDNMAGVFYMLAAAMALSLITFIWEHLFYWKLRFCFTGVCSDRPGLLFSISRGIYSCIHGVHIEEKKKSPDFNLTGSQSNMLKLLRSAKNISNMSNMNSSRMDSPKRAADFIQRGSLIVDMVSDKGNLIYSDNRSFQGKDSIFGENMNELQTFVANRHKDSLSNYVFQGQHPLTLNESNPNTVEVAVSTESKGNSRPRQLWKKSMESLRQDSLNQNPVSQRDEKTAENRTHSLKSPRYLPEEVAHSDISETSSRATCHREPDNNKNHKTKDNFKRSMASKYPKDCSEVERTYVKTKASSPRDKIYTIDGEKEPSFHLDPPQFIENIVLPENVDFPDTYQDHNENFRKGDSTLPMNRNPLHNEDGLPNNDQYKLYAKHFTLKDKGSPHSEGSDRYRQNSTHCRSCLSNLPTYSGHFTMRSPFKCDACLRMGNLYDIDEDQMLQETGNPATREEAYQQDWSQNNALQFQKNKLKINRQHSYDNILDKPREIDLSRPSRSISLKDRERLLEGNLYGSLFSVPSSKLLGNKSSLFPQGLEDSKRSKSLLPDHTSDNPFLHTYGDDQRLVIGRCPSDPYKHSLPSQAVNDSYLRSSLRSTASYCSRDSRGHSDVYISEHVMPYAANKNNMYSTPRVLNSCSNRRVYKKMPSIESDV
T3 sequence (P35436 23-1464, other chains not shown): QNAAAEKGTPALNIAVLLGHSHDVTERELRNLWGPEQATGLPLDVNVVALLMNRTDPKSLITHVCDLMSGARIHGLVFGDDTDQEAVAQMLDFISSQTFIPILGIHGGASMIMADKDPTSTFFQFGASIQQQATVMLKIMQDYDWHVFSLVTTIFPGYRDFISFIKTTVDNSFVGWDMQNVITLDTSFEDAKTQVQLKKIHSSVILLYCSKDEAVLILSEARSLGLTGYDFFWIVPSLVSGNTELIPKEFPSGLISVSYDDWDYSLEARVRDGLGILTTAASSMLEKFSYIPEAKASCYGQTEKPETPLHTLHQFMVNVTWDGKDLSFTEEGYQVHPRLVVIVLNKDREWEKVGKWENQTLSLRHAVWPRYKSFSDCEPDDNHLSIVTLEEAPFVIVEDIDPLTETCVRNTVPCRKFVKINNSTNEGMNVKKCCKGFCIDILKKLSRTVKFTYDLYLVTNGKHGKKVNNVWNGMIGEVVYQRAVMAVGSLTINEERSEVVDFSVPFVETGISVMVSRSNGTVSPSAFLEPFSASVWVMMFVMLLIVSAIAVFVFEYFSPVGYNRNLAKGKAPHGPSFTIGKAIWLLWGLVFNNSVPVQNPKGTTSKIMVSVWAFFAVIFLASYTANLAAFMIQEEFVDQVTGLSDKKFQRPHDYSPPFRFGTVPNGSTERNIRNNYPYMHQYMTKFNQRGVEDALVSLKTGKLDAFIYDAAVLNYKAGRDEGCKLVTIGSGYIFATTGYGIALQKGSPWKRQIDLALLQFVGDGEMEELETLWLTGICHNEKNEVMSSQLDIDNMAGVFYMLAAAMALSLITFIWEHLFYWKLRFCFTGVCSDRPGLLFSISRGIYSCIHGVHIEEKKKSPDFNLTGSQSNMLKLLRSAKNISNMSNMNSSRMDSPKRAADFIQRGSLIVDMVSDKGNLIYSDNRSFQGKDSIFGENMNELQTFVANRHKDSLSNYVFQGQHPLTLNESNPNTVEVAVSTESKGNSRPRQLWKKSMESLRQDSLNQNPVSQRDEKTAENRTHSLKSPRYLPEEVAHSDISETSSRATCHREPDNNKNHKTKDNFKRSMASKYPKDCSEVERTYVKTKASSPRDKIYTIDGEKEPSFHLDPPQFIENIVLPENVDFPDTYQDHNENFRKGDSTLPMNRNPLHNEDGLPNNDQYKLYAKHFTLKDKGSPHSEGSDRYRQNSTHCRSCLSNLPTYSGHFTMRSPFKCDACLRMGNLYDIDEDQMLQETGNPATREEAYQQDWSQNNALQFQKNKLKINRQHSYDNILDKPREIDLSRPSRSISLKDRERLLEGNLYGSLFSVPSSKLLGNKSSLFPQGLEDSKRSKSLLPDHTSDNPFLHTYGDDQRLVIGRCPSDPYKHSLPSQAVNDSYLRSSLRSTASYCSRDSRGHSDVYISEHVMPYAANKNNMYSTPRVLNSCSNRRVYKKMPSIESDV

CC(=O)[C@H]1CC[C@H]2[C@@H]3CC=C4C[C@@H](OS(=O)(=O)O)CC[C@]4(C)[C@H]3CC[C@]12C [pregnenolone sulfate, 20-oxo-5-pregnen-3β-yl sulfate]
Imax potentiation (fold) (GluN1^ΔM4+M4^N1/GluN2D): 1.45 ± 0.19 fold
Imax potentiation at 100 μM (fold) (GluN1/GluN2A^ΔM4+M4^N2A): ~ 1.1 fold
EC50 (GluN1/GluN2A): 12.4 ± 1.3 µM
EC50 (GluN1^ΔM4+M4^N1/GluN2A): 15 ± 1.1 µM
